Here are results for seven compounds from patent US6222043A, “Methods of preparing novel dipeptide compounds or pharmaceutically acceptable salts thereof” (Japan Energy Corporation, priority 1995, dated 2001).

The data set can be described thus: Pharmacokinetics in rats, intravenous or intraduodenal administration. It is filed as in vivo. As to conditions: rat. On the procedure:
Metabolic characteristics of the dipeptide compounds of the present invention was evaluated using rats. Tested compounds dissolved in vehicle was administered intraduodenally or intravenously. After administration, blood was taken and the concentration of residual tested compound in plasma was analyzed. The dosage of the tested compound was described in table 3.

In general, MRT refers to a mean duration of stay, worked out from the concentration-time curve. On to `Cc1c(O)cccc1C(=O)N[C@@H](Cc1ccccc1)[C@H](O)C(=O)N1CSC[C@H]1C(=O)NC(C)(C)C` [Compound of example 21, (R)-N-tert-butyl-3-[(2S,3S)-2-hydroxy-3-[3-hydroxy-2-methylbenzoyl]amino-4-phenylbutanoyl]-1,3-thiazolidine-4-carboxamide], for which, for the setting “i.d., 20.0 mg/kg”, the AUC came out at 101 µg/mL/min and the “F (bioavailability on intraduodenal administration)” value is listed as 45.41%. Further, for the setting “i.v., 10.0 mg/kg”, the AUC came to 111 µg/mL/min, the MRT is 31.7 min and the “t1/2 (λ)” value amounted to 35.98 min.

On to `Cc1c(O)cccc1C(=O)N[C@@H](Cc1ccccc1)[C@H](O)C(=O)N1CSC(C)(C)[C@H]1C(=O)NC(C)(C)C` [Compound of example 22, (R)-N-tert-butyl-3-[(2S,3S)-2-hydroxy-3-[3-hydroxy-2-methylbenzoyl]amino-4-phenylbutanoyl]-5,5-dimethyl-1,3-thiazolidine-4-carboxamide], for which, where the note is “i.d., 20.0 mg/kg”, the AUC is 106 µg/mL/min and the “F (bioavailability on intraduodenal administration)” value was 47.53%. Also, where the note is “i.v., 10.0 mg/kg”, the AUC was found to be 111 µg/mL/min, the MRT was determined as 22.9 min and the “t1/2 (λ)” value was determined as 23.89 min.

For the compound `CCc1c(O)cccc1C(=O)N[C@@H](Cc1ccccc1)[C@H](O)C(=O)N1CSC[C@H]1C(=O)NC(C)(C)C` [Compound of example 31, (R)-N-tert-butyl-3-[(2S,3S)-2-hydroxy-3-(2-ethyl-3-hydroxybenzoyl)amino-4-phenylbutanoyl]-1,3-thiazolidine-4-carboxamide], where the note is “i.d., 10.0 mg/kg”, the AUC was determined as 99 µg/mL/min and the “F (bioavailability on intraduodenal administration)” value is given as 36.24%. For the setting “i.v., 10.0 mg/kg”, the AUC amounted to 276 µg/mL/min, the MRT was found to be 96.0 min and the “t1/2 (λ)” value was 73.81 min.

On to `Cc1ccccc1CNC(=O)[C@@H]1CSCN1C(=O)[C@@H](O)[C@H](Cc1ccccc1)NC(=O)c1cccc(O)c1C` [Compound of example 34, (R)-N-(2-methylbenzyl)-3-[(2S,3S)-3-(3-hydroxy-2-methylbenzoyl)amino-2-hydroxy-4-phenylbutanoyl]-1,3-thiazolidine-4-carboxamide], for which, where the note is “i.d., 10.0 mg/kg”, the AUC was determined as 40 µg/mL/min and the “F (bioavailability on intraduodenal administration)” value was 32.26%. For the setting “i.v., 10.0 mg/kg”, the AUC is 124 µg/mL/min, the MRT is 31.9 min and the “t1/2 (λ)” value was 40.51 min.

As to `CCc1c(O)cccc1C(=O)N[C@@H](Cc1ccccc1)[C@H](O)C(=O)N1CSC(C)(C)[C@H]1C(=O)NC(C)(C)C` [Compound of example 36, (R)-N-tert-butyl-3-[(2S,3S)-3-(2-ethyl-3-hydroxybenzoyl)amino-2-hydroxy-4-phenylbutanoyl]-5,5-dimethyl-1,3-thiazolidine-4-carboxamide], where the note is “i.d., 10.0 mg/kg”, the AUC is 64 µg/mL/min and the “F (bioavailability on intraduodenal administration)” value is given as 37.01%. Where the note is “i.v., 10.0 mg/kg”, the AUC is 174 µg/mL/min, the MRT is 88.9 min and the “t1/2 (λ)” value came out at 83.90 min.

As to `Cc1ccccc1CNC(=O)[C@H]1N(C(=O)[C@@H](O)[C@H](Cc2ccccc2)NC(=O)c2cccc(O)c2C)CSC1(C)C` [Compound of example 37, (R)-N-(2-methylbenzyl)-3-[(2S,3S)-3-(3-hydroxy-2-methylbenzoyl)amino-2-hydroxy-4-phenylbutanoyl]-5,5-dimethyl-1,3-thiazolidine-4-carboxamide], where the note is “i.d., 10.0 mg/kg”, the AUC was determined as 55 µg/mL/min and the “F (bioavailability on intraduodenal administration)” value came out at 41.55%. Under “i.v., 10.0 mg/kg”, the AUC stood at 131 µg/mL/min, the MRT is given as 74.7 min and the “t1/2 (λ)” value amounted to 92.63 min.

`CSC[C@H](NC(=O)COc1cccc2cnccc12)C(=O)N[C@@H](Cc1ccccc1)[C@H](O)C(=O)N1CSC[C@H]1C(=O)NC(C)(C)C` [KNI-272, (R)-3-[(2S,3S)-3-(N-(isoquinoline-5-yloxy)acetylmethylthio-L-alanyl)amino-2-hydroxy-4-phenylbutanoyl]1,3-thiazolidine-4-N'-t-butylcarboxamide, reference compound]: under “i.d., 10.0 mg/kg”, the AUC was determined as 98 µg/mL/min and the “F (bioavailability on intraduodenal administration)” value is on record as 43.20%. In addition, under “i.v., 10.0 mg/kg”, the AUC was found to be 224 µg/mL/min, the MRT is on record as 23.2 min and the “t1/2 (λ)” value turned out to be 25.57 min.
